Broadly, the IC50 is the midpoint of a concentration-inhibition curve. One may read the melting point as the temperature of the solid-liquid transition.

Data set [1] relates to female obese Zucker rats. Briefly: Serum lipid and glycemic control variables in chow-fed obese female Zucker rats, daily oral gavage for two weeks. It is filed as in vivo, rat. As to conditions: Rattus norvegicus; for change in vivo at 100 mg/kg: 100 mg/kg daily oral; for change in vivo at 30 mg/kg: 30 mg/kg daily oral. The protocol:
Ten- to twelve-week old (400-500 grams) female Zucker fatty rats Cr1: (Zuc)-faBR were obtained from Charles River Laboratories. Animals were acclimated to the laboratory environment for seven days. During the acclimation and study period, animals were housed by group in shoebox polycarbonate cages on Cellu-Dri bedding. The temperature and humidity in the animals' quarters (68-78° F.; 30-75% RH) were monitored and the airflow in the room was sufficient to provide several exchanges per hour with 100% fresh filtered air. An automatic timing device provided an alternating 12-hour cycle of light and dark. Rats received pelleted Purina Laboratory Rodent Chow® (5001) prior to and during the drug intervention period except for a 6-hour phase prior to blood sampling. Fresh water was supplied ad libitum via an automatic watering system. Compounds were dissolved, suspended by mixing in a dosing vehicle consisting of 1.5% carboxymethylcellulose/0.2% Tween 20 or 20% ethanol and 80% polyethylene glycol-200 [v/v]. Dose volume of vehicle or vehicle plus each compound was set at 0.25% of body weight in order to deliver the appropriate dose. Doses were administered daily by oral gavage, approximately between 8-10 AM. Regarding blood sampling, animals were fasted for 6 hours prior to all blood collections. Prior to and after 7 days of dosing, a 1.0- to 2.0-mL sample of blood was collected by administering O2/CO2 anesthesia and bleeding from the orbital venous plexus. Following 14 days of dosing, blood was collected by cardiac puncture after euthanasia with CO2. All blood samples were processed for separation of serum and stored at −80° C. until analysis. Commercially available kits were used to determine serum triglycerides (Roche Diagnostic Corporation, Kit No. 148899 or Boehringer Mannheim, Kit No. 1488872), total cholesterol (Roche Diagnostic Corporation, Kit No. 450061), non-esterified fatty acids (Wako Chemicals, Kit No. 994-75409) and β-hydroxybutyrate (Wako Chemicals, Kit No. 417-73501 or Sigma Kit. No. 310-0) on a Hitachi 912 Automatic Analyzer (Roche Diagnostic Corporation). In some instances, an in-house cholesterol reagent was used to determine total serum cholesterol levels. Serum lipoprotein cholesterol levels were determined by lipoprotein profile analysis. Lipoprotein profiles were analyzed using gel-filtration chromatography on a Superose 6HR (1×30 cm) column equipped with on-line detection of total cholesterol as described by Kieft et al (Kieft, K. A.; Bocan, T. M.; Krause, B. R. Rapid on-line determination of cholesterol distribution among plasma lipoproteins after high-performance gel filtration chromatography. J. Lipid Res. 1991, 32, 859-866.). The total cholesterol content of each lipoprotein was calculated by multiplying the independent values determined for serum total cholesterol by the percent area of each lipoprotein in the profile. The percent body weight gain and the ratio of liver to body weight is also determined. Selected data are shown as absolute values or as a percent change of the pretreatment values in Tables 8 and 9.
Select compounds (214c, 210c, and 210g) were further evalutated in the Zucker rat by performing a full dose response and measuring additional scrum variables including markers for diabetes (Tables 10-12).

The subject of data set [2] is primary rat hepatocytes. Kind of data set: Inhibition of lipid synthesis ([1-14C]-acetate incorporation) in primary cultures of rat hepatocytes. Format: cell-based. As to conditions: Hepatocyte, 4 h incubation with [1-14C]-acetate. The procedure: Compounds were tested for inhibition of lipid synthesis in primary cultures of rat hepatocytes. Male Sprague-Dawley rats were anesthetized with intraperitoneal injection of sodium pentobarbital (80 mg/kg). Rat hepatocytes were isolated essentially as described by the method of Seglen (Seglen, P. O. Hepatocyte suspensions and cultures as tools in experimental carcinogenesis. J. Toxicol. Environ. Health 1979, 5, 551-560). Hepatocytes were suspended in Dulbecco's Modified Eagles Medium containing 25 mM D-glucose, 14 mM HEPES, 5 mM L-glutamine, 5 mM leucine, 5 mM alanine, 10 mM lactate, 1 mM pyruvate, 0.2% bovine serum albumin, 17.4 mM non-essential amino acids, 20% fetal bovine serum, […] and 20 μg/mL gentamycin) and plated at a density of 1.5×10^5 cells/cm^2 on collagen-coated 96-well plates. Four hours after plating, media was replaced with the same media without serum. Cells were grown overnight to allow formation of monolayer cultures. Lipid synthesis incubation conditions were initially assessed to ensure the linearity of [1-^14C]-acetate incorporation into hepatocyte lipids for up to 4 hours. Hepatocyte lipid synthesis inhibitory activity was assessed during incubations in the presence of 0.25 μCi [1-^14C]-acetate/well (final radiospecific activity in assay is 1 Ci/mol) and 0, 1, 3, 10, 30, 100 or 300 μM of compounds for 4 hours. At the end of the 4-hour incubation period, medium was discarded and cells were washed twice with ice-cold phosphate buffered saline and stored frozen prior to analysis. To determine total lipid synthesis, 170 μl of MicroScint-E® and 50 μl water was added to each well to extract and partition the lipid soluble products to the upper organic phase containing the scintillant. Lipid radioactivity was assessed by scintillation spectroscopy in a Packard TopCount NXT.

The mark [3] stands for this setting: 168 h, 1 wk, 100% = 2-fold increase, Table 8, read-out: HDL-Cholesterol, Percent Change from Pre-Treatment.
Setting [4] is: 168 h, 1 wk, 100% = 2-fold increase, Table 8, read-out: NonHDL-Cholesterol, Percent Change from Pre-Treatment.
Setting [5] is: 168 h, 1 wk, 100% = 2-fold increase, Table 8, read-out: TG, Percent Change from Pre-Treatment.
Setting [6] is: 336 h, 2 wk, 100% = 2-fold increase, Table 8, read-out: HDL-Cholesterol, Percent Change from Pre-Treatment.
The mark [7] stands for this setting: 336 h, 2 wk, 100% = 2-fold increase, Table 8, read-out: NonHDL-Cholesterol, Percent Change from Pre-Treatment.
Setting [8] is: 336 h, 2 wk, 100% = 2-fold increase, Table 8, read-out: TG, Percent Change from Pre-Treatment.
The mark [9] stands for this setting: 168 h, 1 wk, Table 9, read-out: HDL-Cholesterol, Percent Change from Pre-Treatment.
The mark [10] stands for this setting: 168 h, 1 wk, Table 9, read-out: NonHDL-Cholesterol, Percent Change from Pre-Treatment.
[11] abbreviates: 168 h, 1 wk, Table 9, read-out: TG, Percent Change from Pre-Treatment.
Setting [12] is: 336 h, 2 wk, Table 9, read-out: HDL-Cholesterol, Percent Change from Pre-Treatment.
[13] abbreviates: 336 h, 2 wk, Table 9, read-out: NonHDL-Cholesterol, Percent Change from Pre-Treatment.
Setting [14] is: 336 h, 2 wk, Table 9, read-out: TG, Percent Change from Pre-Treatment.
Where [15] appears, read: Table 7, ranges: confidence of estimate insufficient to assign a value.

Read-outs that look alike come from different tables or passages of the source.

As to `O=C(CCCCC1(C(=O)O)CCCC1)CCCCC1(C(=O)O)CCCC1` [Compound 107g, 1-[9-(1-Carboxycyclopentyl)-5-oxononyl]-1-cyclopentanecarboxylic acid], the melting point lay in the range of 99 to 103 °C. The change in vivo at 100 mg/kg in data set [1] (setting [3]) was 36%. Besides, the change in vivo at 100 mg/kg in data set [1] (setting [4]) was -68%. Besides, in data set [1] (setting [5]), the change in vivo at 100 mg/kg is -67%. Also, the change in vivo at 100 mg/kg in data set [1] (setting [6]) came out at 40%. Moreover, in data set [1] (setting [7]), the change in vivo at 100 mg/kg was -67%. In data set [1] (setting [8]), the change in vivo at 100 mg/kg is -70%. In data set [2] (Table 6), this molecule showed an IC50 of 113 µM.
The molecule `CC(C)(CCCCC(=O)CCCC(C)(C)C(=O)O)C(=O)O` [Compound 225, 2,2,11,11-Tetramethyl-6-oxododecanedioc acid] gave a melting point of 72 to 73 °C. The change in vivo at 30 mg/kg in data set [1] (setting [9]) came out at 7%. For the same molecule, in data set [1] (setting [10]), the change in vivo at 30 mg/kg was -17%. In addition, in data set [1] (setting [11]), the change in vivo at 30 mg/kg was -2%. Also, in data set [1] (setting [12]), the change in vivo at 30 mg/kg was 4%. For the same molecule, the change in vivo at 30 mg/kg in data set [1] (setting [13]) is 92%. Moreover, in data set [1] (setting [14]), the change in vivo at 30 mg/kg was -22%. Besides, the IC50 in data set [2] (setting [15]) is 8 µM.
The molecule `Cc1ccc(C(C)(CCCCC(=O)CCCCC(C)(C(=O)O)c2ccc(C)cc2)C(=O)O)cc1` (stereo not drawn) [Compound 210e, 2,12-Dimethyl-7-oxo-2,12-di-p-tolyltridecanedioic acid] yielded a melting point of 48 to 50 °C. Moreover, the change in vivo at 30 mg/kg in data set [1] (setting [9]) was determined as 0%. In addition, the change in vivo at 30 mg/kg in data set [1] (setting [10]) worked out at 0%. Besides, in data set [1] (setting [11]), the change in vivo at 30 mg/kg was -11%. For the same molecule, the change in vivo at 30 mg/kg in data set [1] (setting [12]) was determined as 10%. Besides, the change in vivo at 30 mg/kg in data set [1] (setting [13]) was 47%. For the same molecule, the change in vivo at 30 mg/kg in data set [1] (setting [14]) came out at 12%. Further, the IC50 in data set [2] (setting [15]) is 100 to 300 µM.
As to `O=C(CCCCCC1(C(=O)O)CC1)CCCCCC1(C(=O)O)CC1` [Compound 107l, 1-[11-(1-Carboxycyclopropyl)-6-oxoundecyl]-1-cyclopropanecarboxylic acid], the melting point is 122 to 123 °C. For the same molecule, the change in vivo at 100 mg/kg in data set [1] (setting [3]) is 136%. Further, the change in vivo at 100 mg/kg in data set [1] (setting [4]) is -92%. Further, the change in vivo at 100 mg/kg in data set [1] (setting [5]) was -95%. The change in vivo at 100 mg/kg in data set [1] (setting [6]) was determined as 171%. In data set [1] (setting [7]), the change in vivo at 100 mg/kg is -83%. Moreover, the change in vivo at 100 mg/kg in data set [1] (setting [8]) is -94%. In data set [2] (Table 6), this molecule showed an IC50 of 0.5 µM.
For the molecule `CC(C)(CCCCCC(=O)CCCCCC1(C(=O)O)CC1)C(=O)O` [Compound 107k, 13-(1-Carboxycyclopropyl)-2,2-dimethyl-8-oxotridecanoic acid], the melting point lay within 65 to 66 °C. The change in vivo at 100 mg/kg in data set [1] (setting [3]) came out at 43%. The change in vivo at 100 mg/kg in data set [1] (setting [4]) was -90%. The change in vivo at 100 mg/kg in data set [1] (setting [5]) was -93%. In addition, the change in vivo at 100 mg/kg in data set [1] (setting [6]) turned out to be 84%. In addition, in data set [1] (setting [7]), the change in vivo at 100 mg/kg is -99%. The change in vivo at 100 mg/kg in data set [1] (setting [8]) is -98%. The IC50 in data set [2] (Table 6) came out at 1 µM.
In turn, `O=C(CCCCCC1(C(=O)O)CCCC1)CCCCCC1(C(=O)O)CCCC1` [Compound 107m, 1-[11-(1-Carboxycyclopentyl)-6-oxoundecyl]-1-cyclopentanecarboxylic acid] gave a melting point of 78 to 85 °C. Further, the change in vivo at 100 mg/kg in data set [1] (setting [3]) was 12%. Moreover, the change in vivo at 100 mg/kg in data set [1] (setting [4]) was -54%. Besides, the change in vivo at 100 mg/kg in data set [1] (setting [5]) was -63%. In addition, the change in vivo at 100 mg/kg in data set [1] (setting [6]) was 27%. The change in vivo at 100 mg/kg in data set [1] (setting [7]) was -32%. Further, in data set [1] (setting [8]), the change in vivo at 100 mg/kg is -48%. For the same molecule, in data set [2] (Table 6), the midpoint of inhibition, the IC50, lay at 2 µM.
In the case of `CC(C)(CCCCC(=O)CCCCC1(C(=O)O)CC1)C(=O)O` [Compound 107c, 11-(1-Carboxycyclopropyl)-2,2-dimethyl-7-oxoundecanoic acid], the melting point lay in the range of 49 to 52 °C. In data set [1] (setting [3]), the change in vivo at 100 mg/kg came out at 104%. Moreover, the change in vivo at 100 mg/kg in data set [1] (setting [4]) was -84%. Besides, the change in vivo at 100 mg/kg in data set [1] (setting [5]) is -93%. Also, in data set [1] (setting [6]), the change in vivo at 100 mg/kg came to 248%. Also, in data set [1] (setting [7]), the change in vivo at 100 mg/kg is -20%. For the same molecule, in data set [1] (setting [8]), the change in vivo at 100 mg/kg was -64%. In data set [2] (Table 6), this molecule returned an IC50 of 0.6 µM.
Turning to `CC(C)(CCCCCC(=O)CCCCC(C)(C)C(=O)O)C(=O)O` [Compound 226, 2,2,13,13-Tetramethyl-7-oxotetradecanedioc acid], the melting point is 61 to 62 °C. For the same molecule, the change in vivo at 100 mg/kg in data set [1] (setting [9]) was determined as 240%. Besides, the change in vivo at 100 mg/kg in data set [1] (setting [10]) is -30%. Moreover, in data set [1] (setting [11]), the change in vivo at 100 mg/kg is -65%. In data set [1] (setting [12]), the change in vivo at 100 mg/kg was 72%. The change in vivo at 100 mg/kg in data set [1] (setting [13]) was -51%. Further, the change in vivo at 100 mg/kg in data set [1] (setting [14]) is -62%. Besides, in data set [2] (setting [15]), the IC50 was 3 µM.
As for `CC(C)(CCCCC(=O)CCCCC1(C(=O)O)CCC1)C(=O)O` [Compound 107e, 11-(1-Carboxycyclobutyl)-2,2-dimethyl-7-oxoundecanoic acid], the melting point is 53 to 55 °C. Moreover, the change in vivo at 100 mg/kg in data set [1] (setting [3]) is 30%. In addition, in data set [1] (setting [4]), the change in vivo at 100 mg/kg stood at 4%. The change in vivo at 100 mg/kg in data set [1] (setting [5]) was -54%. Besides, the change in vivo at 100 mg/kg in data set [1] (setting [6]) turned out to be 60%. Also, in data set [1] (setting [7]), the change in vivo at 100 mg/kg came out at 28%. Moreover, the change in vivo at 100 mg/kg in data set [1] (setting [8]) was -51%. The same molecule showed an IC50 in data set [2] (Table 6) of 6 µM.
